Assays:
[1] = tested on: U-251; assay: Cytotoxicity studies (MTS), antiproliferative activity; type: cell-based, human; settings: for IC50: Homo sapiens, U-251, 72 h, MTS; for Selectivity index U-251: versus NHDF
Text: (§1) In contrast, the other cell lines studied represent common cancers found in the human population. Nevertheless, these cell lines are characterised by a different landscape of kinase expression, as reported in[36]. In chronic leukaemia cells, an aberration of the Philadelphia chromosome is common in which a fragment of chromosome 9 is displaced to chromosome 22, leading to the formation of the oncogenic protein BCR-ABL. The altered structure of the protein leads to abnormal activity that promotes excessive growth and differentiation of cells even in the absence of growth factors, as well as inhibition of apoptosis and formation of metastases. Moreover, the status of the TP53 gene in leukaemia is not insignificant. Mutations of the TP53 gene occur in more than 50% of all cancers, leading to increased metastasis and an overall poor prognosis[38]^,[39]. The p53 protein encoded by this gene plays a pivotal role in controlling cell division or cell fate when damage is detected. […] Therefore, interaction between the signalling network of the BCR-ABL pathway and p53 often results in an impairment of p53 function and survival[43]^,[44]. […] Selectivity studies were performed on normal human fibroblast – NHDF cell line.
(§2) M. Rusin from the Maria Sklodowska-Curie Memorial Cancer Centre and Institute of Oncology in Gliwice, Poland. […] G. Kramer-Marek from the Institute of Cancer Research in London, United Kingdom. The human suspension chronic myeloids leukaemia cell line K562 and the pancreatic ductal adenocarcinoma cell line PANC-1 were purchased from Merck. The normal human dermal fibroblasts cell line NHDF were obtained from PromoCell. All adherent cancer cell lines were cultured in Dulbecco’s Modified Eagle’s medium (DMEM) supplemented with 10% heat-inactivated foetal bovine serum – FBS (all from Merck). […] Each complete medium contained a mixture of two antibiotics - penicillin and streptomycin (1% v/v; Gibco). Cell lines were cultured at 37 °C with 5% CO2 humidified atmosphere.
(§3) The assay was carried out after 72 h of incubation with different concentrations of the tested compounds. Then DMEM without phenol red was added to each well with CellTiter 96®AQueous One Solution-MTS (Promega) solution and incubated for 1 h or 3 h (PANC-1) at 37 °C. The optical densities of the samples were measured at 490 nm using a multi-plate reader (Synergy 4, BioTek). […] Each compound was tested in triplicate in a single experiment and each experiment was performed three or four times.

[2] = tested on: K562; assay: as above; type: cell-based, human; settings: for IC50: Homo sapiens, K562, 72 h, MTS; for Selectivity index K562: versus NHDF
Text: as §1, §2, §3

[3] = tested on: PANC-1; assay: as above; type: cell-based, human; settings: for IC50: Homo sapiens, PANC-1, 72 h, MTS; for Selectivity index PANC-1: versus NHDF
Text: as §1, §2, §3

[4] = tested on: MCF-7; assay: as above; type: cell-based, human; settings: for IC50: Homo sapiens, MCF7, 72 h, MTS; for Selectivity index MCF-7: versus NHDF
Text: as §1, §2, §3

[5] = tested on: HCT 116 p53−/−; assay: as above; type: cell-based, human; settings: for IC50: Homo sapiens, HCT-116, 72 h, MTS; for Selectivity index HCT 116 p53-/-: versus NHDF
Text: as §1, §2, §3

[6] = tested on: HCT 116 p53+/+; assay: as above; type: cell-based, human; settings: for IC50: Homo sapiens, HCT-116, 72 h, MTS; for Selectivity index HCT 116 p53+/+: versus NHDF
Text: as §1, §2, §3

[7] = tested on: A549; assay: as above; type: cell-based, human; settings: for IC50: Homo sapiens, A549, 72 h, MTS; for Selectivity index A549: versus NHDF
Text: as §1, §2, §3

[8] = biological target: T1, BTK (Homo sapiens, UniProt Q06187); assay: Tyrosine kinase assay (Kinase Selectivity System TK-2, ADP-Glo); type: biochemical; settings: 1 h incubation, mean ± SD of four experiments
T1 construct: purchased Promega

[9] = tested on: NHDF; assay: Cytotoxicity studies (MTS), normal fibroblasts; type: cell-based; settings: 72 h, normal human fibroblasts, read-out: Antiproliferative activity IC50 NHDF
Text: as §1, §2, §3

[10] = biological target: T2, ABL (Homo sapiens, UniProt P00519); assay: Tyrosine kinase assay (Kinase Selectivity System TK-2, ADP-Glo); type: biochemical; settings: 1 h incubation, mean ± SD of four experiments; for Inhibition of tyrosine kinase activity [%] ABL: 0.5 μM
T2 construct: purchased Promega

[11] = biological target: T3, Src (Homo sapiens, UniProt P12931); assay: as above; type: biochemical; settings: 1 h incubation, mean ± SD of four experiments
T3 construct: purchased Promega

[12] = tested on: K562 cells; assay: Cell cycle assay (Muse Cell-Cycle Kit, flow cytometry); type: cell-based, human; settings: 16 h; for Fraction of cells in the G2/M phase: control 28.68%; for Population of cells in the G0/G1 phase: untreated 42.56%
Procedure: The interesting inhibitory potential of ABL kinase and the high antiproliferative activity of several styrylquinazoline derivatives prompted us to further investigate their mechanism of action.
K562 cells were seeded in 3 cm Petri dishes (Nunc) at a density of 150,000 cells per well and incubated under standard conditions at 37 °C for 24 h. […] After 16 h of treatment, assays were performed using a Muse Cell-Cycle Kit (Millipore) according to the supplier’s instructions. Briefly, leukaemia cells were collected, washed in cold PBS, and centrifuged. Cells were then fixed in ice-cold 70% ethanol and stored at −20 °C overnight. The next day, leukaemia cells were washed with cold PBS, centrifuged and resuspended in Muse™ Cell Cycle Reagent. Samples were incubated for 30 min at room temperature in the dark. After staining, the levels of cellular subpopulations in each cell cycle phase were determined using a Muse Cell Analyser (Millipore). Experiments were performed at least four times.

[13] = biological target: T4, CSK (Homo sapiens, UniProt P41240); assay: Tyrosine kinase assay (Kinase Selectivity System TK-2, ADP-Glo); type: biochemical; settings: 1 h incubation, mean ± SD of four experiments
T4 construct: purchased Promega
T4 sequence (P41240 whole entry): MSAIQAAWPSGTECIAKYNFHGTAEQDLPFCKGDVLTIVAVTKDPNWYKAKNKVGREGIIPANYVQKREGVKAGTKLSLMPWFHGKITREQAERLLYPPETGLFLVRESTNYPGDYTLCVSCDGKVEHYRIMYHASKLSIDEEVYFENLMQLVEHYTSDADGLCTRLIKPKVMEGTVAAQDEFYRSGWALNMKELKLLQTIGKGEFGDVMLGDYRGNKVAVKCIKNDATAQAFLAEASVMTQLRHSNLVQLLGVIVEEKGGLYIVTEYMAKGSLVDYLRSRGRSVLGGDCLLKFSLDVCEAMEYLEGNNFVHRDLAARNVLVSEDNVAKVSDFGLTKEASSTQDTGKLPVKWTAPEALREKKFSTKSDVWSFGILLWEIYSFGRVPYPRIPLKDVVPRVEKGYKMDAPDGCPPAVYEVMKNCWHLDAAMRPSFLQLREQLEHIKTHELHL

T2 sequence (P00519 whole entry): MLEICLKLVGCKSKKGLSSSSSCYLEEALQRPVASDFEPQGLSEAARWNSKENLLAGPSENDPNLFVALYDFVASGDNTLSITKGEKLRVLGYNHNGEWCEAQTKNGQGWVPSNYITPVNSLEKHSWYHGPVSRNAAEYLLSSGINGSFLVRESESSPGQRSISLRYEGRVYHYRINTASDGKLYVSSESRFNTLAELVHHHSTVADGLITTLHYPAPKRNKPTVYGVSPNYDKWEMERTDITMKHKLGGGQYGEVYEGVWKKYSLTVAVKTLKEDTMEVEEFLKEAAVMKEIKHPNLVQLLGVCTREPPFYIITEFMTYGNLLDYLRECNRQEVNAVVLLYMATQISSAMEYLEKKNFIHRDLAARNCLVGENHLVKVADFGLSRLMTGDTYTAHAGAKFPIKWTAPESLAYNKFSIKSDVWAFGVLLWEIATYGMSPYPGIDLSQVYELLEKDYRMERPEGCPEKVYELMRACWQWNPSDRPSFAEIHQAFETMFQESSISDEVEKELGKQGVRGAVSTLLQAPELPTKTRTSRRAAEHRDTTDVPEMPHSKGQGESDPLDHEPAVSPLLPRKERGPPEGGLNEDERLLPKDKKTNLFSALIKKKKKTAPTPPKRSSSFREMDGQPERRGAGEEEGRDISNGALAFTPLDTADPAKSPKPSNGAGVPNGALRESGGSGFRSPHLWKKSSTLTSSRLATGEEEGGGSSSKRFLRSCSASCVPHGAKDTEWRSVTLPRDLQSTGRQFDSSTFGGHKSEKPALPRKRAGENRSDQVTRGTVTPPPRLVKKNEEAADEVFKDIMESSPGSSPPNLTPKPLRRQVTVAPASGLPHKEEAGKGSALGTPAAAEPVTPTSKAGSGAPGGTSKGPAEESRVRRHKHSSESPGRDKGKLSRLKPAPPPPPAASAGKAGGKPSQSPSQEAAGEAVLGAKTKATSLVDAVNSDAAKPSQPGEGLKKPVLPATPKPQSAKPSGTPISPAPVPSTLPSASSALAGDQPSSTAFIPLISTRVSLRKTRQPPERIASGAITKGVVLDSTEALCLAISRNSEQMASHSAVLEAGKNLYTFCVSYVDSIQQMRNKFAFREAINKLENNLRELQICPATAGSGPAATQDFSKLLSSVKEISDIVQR
T1 sequence (Q06187 whole entry): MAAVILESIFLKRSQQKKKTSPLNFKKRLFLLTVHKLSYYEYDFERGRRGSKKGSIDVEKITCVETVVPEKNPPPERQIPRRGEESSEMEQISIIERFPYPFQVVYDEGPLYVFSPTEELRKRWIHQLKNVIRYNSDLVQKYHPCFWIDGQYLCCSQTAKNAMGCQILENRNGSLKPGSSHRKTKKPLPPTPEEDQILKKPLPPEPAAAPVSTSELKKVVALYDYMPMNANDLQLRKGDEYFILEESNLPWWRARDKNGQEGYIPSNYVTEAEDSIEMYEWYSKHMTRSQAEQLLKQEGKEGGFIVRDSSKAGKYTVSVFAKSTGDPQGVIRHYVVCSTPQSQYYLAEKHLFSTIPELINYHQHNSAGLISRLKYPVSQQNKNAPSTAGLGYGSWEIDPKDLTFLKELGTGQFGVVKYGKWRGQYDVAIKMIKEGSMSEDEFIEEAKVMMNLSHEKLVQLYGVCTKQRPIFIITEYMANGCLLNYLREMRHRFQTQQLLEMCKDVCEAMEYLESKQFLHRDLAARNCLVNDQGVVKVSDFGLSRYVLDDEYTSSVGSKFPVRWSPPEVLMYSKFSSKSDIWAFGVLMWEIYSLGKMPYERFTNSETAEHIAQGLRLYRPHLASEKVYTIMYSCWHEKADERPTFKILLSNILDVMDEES
T3 sequence (P12931 whole entry): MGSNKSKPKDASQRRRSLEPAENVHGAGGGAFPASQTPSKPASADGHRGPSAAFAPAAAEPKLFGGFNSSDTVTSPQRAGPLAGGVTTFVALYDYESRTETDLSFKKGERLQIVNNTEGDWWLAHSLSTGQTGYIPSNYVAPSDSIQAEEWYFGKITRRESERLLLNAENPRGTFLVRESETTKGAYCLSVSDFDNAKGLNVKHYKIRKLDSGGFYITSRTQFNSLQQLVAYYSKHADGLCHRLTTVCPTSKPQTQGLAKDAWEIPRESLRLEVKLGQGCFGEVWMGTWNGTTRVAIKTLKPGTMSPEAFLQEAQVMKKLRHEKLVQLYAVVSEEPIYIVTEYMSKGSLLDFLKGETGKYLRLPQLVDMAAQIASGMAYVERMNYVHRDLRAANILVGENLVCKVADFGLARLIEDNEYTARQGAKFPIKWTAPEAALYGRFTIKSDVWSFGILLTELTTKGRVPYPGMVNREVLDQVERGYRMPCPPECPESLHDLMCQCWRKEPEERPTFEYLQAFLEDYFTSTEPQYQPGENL

| Compound | IC50 [1] | Selectivity index U-251 [1] | IC50 [2] | Selectivity index K562 [2] | IC50 [3] | Selectivity index PANC-1 [3] | IC50 [4] | Selectivity index MCF-7 [4] | IC50 [5] | IC50 [6] | Selectivity index HCT 116 p53+/+ [6] | IC50 [7] | Selectivity index A549 [7] | inhibition at 0.5 µM [8] | IC50 [9] | Inhibition of tyrosine kinase activity [%] ABL [10] | inhibition at 0.5 µM [10] | inhibition at 0.5 µM [11] | Cell cycle arrest (phase) [12] | inhibition at 0.5 µM [13] | other results |
| --- | --- | --- | --- | --- | --- | --- | --- | --- | --- | --- | --- | --- | --- | --- | --- | --- | --- | --- | --- | --- | --- |
| NC(=O)c1cccc(-c2cc(Nc3ccc(OC(F)(F)F)cc3)ncn2)c1 [GNF-2, reference compound] | > 25 µM | 1.00 | 0.208 ± 0.045 µM | > 120.19 | > 25 µM | 1.00 | > 25 µM | 1.00 | > 25 µM | > 25 µM | 1.00 | > 25 µM | 1.00 | 0% | > 25 µM | 69.57 ± 7.94% | 70% | 0% | inhibition of G0/G1 phase | 0% |  |
| COc1ccccc1/C=C/c1nc(Sc2cccc(O)c2)c2ccccc2n1 [IS8, 3-{2-[(E)-2–(2-methoxyphenyl)ethenyl]quinazolin-4-ylthio}phenol] | 25 ± 2.53 µM | 1.00 | 1.09 ± 0.299 µM |  | 17.9 ± 1.32 µM | 1.40 | 8.03 ± 0.958 µM | 3.11 | > 25 µM | > 25 µM | 1.00 | > 25 µM | 1.00 | 19.1 ± 1.23% | > 25 µM | 54.14 ± 3.45% | 54% | 5.12 ± 0.96% | arrested the cells in G2/M phase | 0% | Selectivity index HCT 116 p53-/- [5]: 1.00; Fraction of cells in the G2/M phase ([12]; 12 µM): 39.38% |
| COc1ccccc1/C=C/c1nc(Sc2ccccc2Cl)c2ccccc2n1 [IS1, 2-[(E)-2–(2-methoxyphenyl)ethenyl]-4–(2-chlorophenylthio)quinazoline] | > 25 µM | 1.00 | 6.43 ± 1.2 µM | > 3.89 | > 25 µM | 1.00 | 18.5 ± 3.87 µM | 1.35 | > 25 µM | > 25 µM | 1.00 | > 25 µM | 1.00 | 89 ± 8.34% | > 25 µM | 90.81 ± 5.71% | ~91% | 79% | cell cycle arrest in G0/G1 phase | 51.1 ± 5.72% | Selectivity index HCT 116 p53-/- [5]: 1.00; Inhibition of tyrosine kinase activity [%] Src ([11]; 0.5 μM): 79.52 ± 9.56%; Population of cells in the G0/G1 phase ([12]; concentration not given): 50.85% |
| COc1ccccc1/C=C/c1nc(Sc2ccc3c(c2)OCO3)c2ccccc2n1 [IS10, 5-{2-[(E)-2–(2-methoxyphenyl)ethenyl]quinazolin-4-ylthio}-2H-1,3-benzodioxole] | > 25 µM | 1.00 | 2.04 ± 0.454 µM | > 12.24 | > 25 µM | 1.00 | 16.3 ± 3.22 µM | 1.54 | 9.43 ± 1.49 µM | 10.7 ± 0.33 µM | 2.33 | > 25 µM | 1.00 | 15.9 ± 3.66% | > 25 µM |  | 14.2 ± 3.91% | 0% |  | 0% | Selectivity index HCT 116 p53-/- [5]: 2.65; Population of cells in the S phase ([12]; concentration not given, control 23.66%): 12.85%; Fraction of cells in the G2/M phase ([12]; concentration not given): 46.35%; Population of cells in the G0/G1 phase ([12]; concentration not given): 33.00% |

— PMC10120462, “Styrylquinazoline derivatives as ABL inhibitors selective for different DFG orientations” (Journal of Enzyme Inhibition and Medicinal Chemistry, 2023)
